In one data set the test system is Osteosarcoma-2 xenograft. The data set can be described thus: Osteosarcoma tumor regression model. Type of data set: in vivo, mice. Also noted: key: 6+: Maintained Complete Regression; 5+: Complete Regression; 4+: Partial Regression; 3+: Stable Disease. The note with it: 28 mg/kg oral gavage, [(d×5)2]3 schedule. On the procedure:
(§1) This test was carried out with the use of the methods described in Cancer, Res., Oct. 15, 64:20:7491-9 (2004), and in Clin. Cancer Res., Nov. 15:9 (15):5442-53 (2003).
(§2) All mice bearing subcutaneous (“Sc”) tumors measuring approximately 0.2-1 cm in diameter were treated with a test compound by oral gavage using [(d×5)2]3 schedule. […] The tumor response to the test compound was defined as follows: For individual tumors, partial regression (“PR”) was defined as a volume regression >50%, but with measurable tumor at all times. Complete regression (“CR”) was defined as disappearance of measurable tumor mass at some point within 12 weeks after initiation of therapy. Maintained CR is defined as no tumor re-growth within a 12-week study time frame. This time point was chosen because all studies lasted at least 12 weeks. Mice that died before the end of the 12-week study time, and prior to achieving a response, were considered as failures for tumor response.

Data set [1] concerns Osteosarcoma-29 xenograft. As to the kind of experiment: Osteosarcoma tumor regression model. The note with it: 28 mg/kg oral gavage, [(d×5)2]3 schedule. Details: key: 6+: Maintained Complete Regression; 5+: Complete Regression; 4+: Partial Regression; 3+: Stable Disease. Type of data set: in vivo, mice. The protocol:
as §1, §2

The subject of data set [2] is Osteosarcoma-17 xenograft. As to the kind of experiment: Osteosarcoma tumor regression model. Type of data set: in vivo, mice. Also noted: key: 6+: Maintained Complete Regression; 5+: Complete Regression; 4+: Partial Regression; 3+: Stable Disease. The settings on record: 28 mg/kg oral gavage, [(d×5)2]3 schedule. On the procedure: as §1, §2
Data set [3] relates to Osteosarcoma-32 xenograft. As to the kind of experiment: Osteosarcoma tumor regression model. Type of data set: in vivo, mice. Details: key: 6+: Maintained Complete Regression; 5+: Complete Regression; 4+: Partial Regression; 3+: Stable Disease. The settings on record: 28 mg/kg oral gavage, [(d×5)2]3 schedule. The protocol:
as §1, §2

In data set [4] the test system is NCl-H460 (human small cell lung carcinoma) xenografts. The data set can be described thus: NCl-H460 xenograft study in nude mice. The note with it: oral, (d×5)2 schedule. The protocol: To perform the NCl-H460 xenograft study, NCl-H460 tumor pieces measuring ~60 mm^3 were implanted in the space of dorsal lateral flanks of female athymic nude mice to initiate tumor growth. When the tumors were grown to ~150-1000 mm^3, animals were randomized into groups of five prior to initiating therapy. […] Each gram of placebo was formulated to contain 895.2 mg hydroxylpropyl beta cyclodextran, 89.52 mg dextrose anhydrous and 14.9 mg sodium carbonate. Each formulation was dissolved in 2 ml sterile water and administered through oral route in a (d×5)2 schedule. Tumor diameters were measured twice a week using a vernier caliper.
Tumor volumes were calculated assuming tumors to be ellipsoid using the formula: V=(D×d^2)/2, where V (mm^3) is tumor volume, D is longest diameter in mm and d is shortest diameter in mm. Change in tumor volumes (Δ) for each treated (T) and control (C) group were calculated by subtracting the mean tumor volume on the first day of treatment (starting day) from the mean tumor volume on the specified observation day. These values were used to calculate a percentage growth (% T/C) using the formulas:
Percentage tumor growth inhibition (% TGI) was then calculated using the formula: % TGI=100−% TC.
All of the mice bearing subcutaneous tumors measuring approximately 150-800 mm^3 were treated with test compound through oral gavage using a (d×5)2 schedule. Tumor diameters were measured twice in a week using vernier calipers and tumor volumes were calculated assuming tumors to be ellipsoid using the formula V=(D×d^2)/2 where V (mm^3) is tumor volume, D is longest diameter in mm., and d is shortest diameter in mm. Changes in tumor Volumes (Δ volumes) for each treated (T) and control (C) group are calculated, by subtracting the mean tumor volume on the first day of treatment (starting day) from the mean tumor volume of on the specified observation day. These values are used to calculate a percentage growth (% T/C) using the formula: […]
Tumor regressions are defined as partial if the tumor volume decreases to 50% or less of the tumor volume at the start of the treatment without dropping below to 63 mm^3. Complete regression is defined if the tumor volume drops to below measurable limits (<63 mm^3).
The percentage body weight change in comparison to starting day body weight of each animal was calculated using the formula: Percentage Body weight change=[(Body weight on specified observation day-Body weight on starting day)/Body weight on starting day]×100.
The other parameter observed was mortality.

This is an account of results in US20110177161A1, “PHARMACEUTICAL COMPOSITIONS OF [5(S)-(2'-HYDROXYETHOXY)-20(S)-CAMPTOTHECIN” (DR. REDDY'S LABORATORIES LIMITED, priority 2007, published 2011).

For `CC[C@@]1(O)C(=O)OCc2c1cc1n(c2=O)C(OCCO)c2cc3ccccc3nc2-1` (mixture of isomers) [5(RS)-(2′-hydroxyethoxy)-20(S)-camptothecin, reference compound], the Tumor response is reported as 5+ in the data set with Osteosarcoma-2 xenograft, 5+ in data set [1], 4+ in data set [2] and 3+ in data set [3]. Moreover, the “% Tumor Growth Inhibition” value was 60% in data set [4] (Dose 2 mg/kg) and 64% in data set [4] (Dose 4 mg/kg). In addition, the Mortality in data set [4] (Dose 2 mg/kg) and in data set [4] (Dose 4 mg/kg) was 0/5 in each case.

For `CC[C@@]1(O)C(=O)OCc2c1cc1n(c2=O)[C@@H](OCCO)c2cc3ccccc3nc2-1` [DRF-(5S,20S)-1042, 5(S)-(2′-hydroxyethoxy)-20(S)-camptothecin], the Tumor response (with Osteosarcoma-2 xenograft; in data set [1]; in data set [2]; in data set [3]) was 6+ each time. Further, the “% Tumor Growth Inhibition” value in data set [4] (Dose 2 mg/kg) came to 68%; in data set [4] (Dose 4 mg/kg), 76%. Besides, the Mortality in data set [4] (Dose 2 mg/kg) and in data set [4] (Dose 4 mg/kg) was 0/5 each time.
